Measured values published in the NIST ThermoML archive (doi:10.1021/je9004992).
± gives the expanded uncertainty stated by the source.

Assay: molar heat capacity at constant pressure
Conditions: Liquid, Small sample (50 mg) DSC

CCCCCCCC[n+]1ccn(C)c1.F[B-](F)(F)F [1-methyl-3-octylimidazolium tetrafluoroborate]
molar heat capacity at constant pressure [J/K/mol]
Conditions	283.15 K	288.15 K	293.15 K	298.15 K	303.15 K	308.15 K	313.15 K	318.15 K	323.15 K
100 kPa	489.23 ± 7.6	493.12 ± 7.6	496.79 ± 7.7	500.26 ± 7.8	503.51 ± 7.8	506.55 ± 7.8	509.38 ± 7.9	512 ± 7.9	514.41 ± 8
2000 kPa	489.23 ± 7.6	493.12 ± 7.6	496.79 ± 7.7	500.25 ± 7.8	503.5 ± 7.8	506.55 ± 7.8	509.38 ± 7.9	512 ± 7.9	514.41 ± 8
4000 kPa	489.23 ± 7.6	493.12 ± 7.6	496.79 ± 7.7	500.25 ± 7.8	503.5 ± 7.8	506.54 ± 7.8	509.37 ± 7.9	512 ± 7.9	514.41 ± 8
6000 kPa	489.24 ± 7.6	493.11 ± 7.6	496.78 ± 7.7	500.24 ± 7.8	503.5 ± 7.8	506.54 ± 7.8	509.37 ± 7.9	512 ± 7.9	514.41 ± 8
8000 kPa	489.24 ± 7.6	493.11 ± 7.6	496.78 ± 7.7	500.24 ± 7.8	503.49 ± 7.8	506.53 ± 7.8	509.37 ± 7.9	512 ± 7.9	514.41 ± 8
10000 kPa	489.24 ± 7.6	493.11 ± 7.6	496.78 ± 7.7	500.24 ± 7.8	503.49 ± 7.8	506.53 ± 7.8	509.37 ± 7.9	511.99 ± 7.9	514.41 ± 8
12000 kPa	489.24 ± 7.6	493.11 ± 7.6	496.78 ± 7.7	500.23 ± 7.8	503.48 ± 7.8	506.53 ± 7.8	509.36 ± 7.9	511.99 ± 7.9	514.42 ± 8
14000 kPa	489.24 ± 7.6	493.11 ± 7.6	496.77 ± 7.7	500.23 ± 7.8	503.48 ± 7.8	506.52 ± 7.8	509.36 ± 7.9	511.99 ± 7.9	514.42 ± 8
20000 kPa	489.24 ± 7.6	493.11 ± 7.6	496.76 ± 7.7	500.22 ± 7.8	503.47 ± 7.8	506.51 ± 7.8	509.35 ± 7.9	511.99 ± 7.9	514.42 ± 8
30000 kPa	489.25 ± 7.6	493.1 ± 7.6	496.75 ± 7.7	500.2 ± 7.8	503.45 ± 7.8	506.49 ± 7.8	509.34 ± 7.9	511.98 ± 7.9	514.43 ± 8
40000 kPa	489.26 ± 7.6	493.09 ± 7.6	496.73 ± 7.7	500.18 ± 7.8	503.42 ± 7.8	506.47 ± 7.8	509.32 ± 7.9	511.98 ± 7.9	514.44 ± 8
50000 kPa	489.26 ± 7.6	493.09 ± 7.6	496.72 ± 7.7	500.16 ± 7.8	503.4 ± 7.8	506.45 ± 7.8	509.31 ± 7.9	511.97 ± 7.9	514.44 ± 8
60000 kPa	489.27 ± 7.6	493.08 ± 7.6	496.7 ± 7.7	500.14 ± 7.8	503.38 ± 7.8	506.43 ± 7.8	509.3 ± 7.9	511.97 ± 7.9	514.45 ± 8
